The record followed here is patent US10604554B2, “Double-acylated GLP-1 derivatives” (Novo Nordisk A/S, priority 2012, dated 2020).

Series [1] is described as follows: Pharmacokinetic (PK) study in rat. The settings on record: male, Sprague Dawley, in vivo, iv, 6 nmol/kg.
Method: The purpose of this Example is to investigate half-life in vivo in rat.
In vivo pharmacokinetic studies in rats were performed with the GLP-1 derivatives of a number of the Example compounds, as described in the following.
Male Sprague Dawley rats of same age with a body weight of approximately 400 g were obtained from Taconic (Denmark) and assigned to the treatments by simple randomisation on body weight, approximately 4 rats per group.
The GLP-1 derivatives (approximately 6 nmol/ml) were dissolved in 50 mM sodium phosphate, 145 mM sodium chloride, 0.05% tween 80, pH 7.4. Intravenous injections (1.0 ml/kg) of the compounds were given with a syringe in the tail vein of conscious rats. Blood was sampled from vena sublingualis for 5 days post dosing. Blood samples (200 μl) were collected in EDTA buffer (8 mM) and then centrifuged at 4° C. and 10000 G for 5 minutes. Plasma samples were kept at −20° C. until analyzed for plasma concentration of the respective GLP-1 compound.
The donor beads were coated with streptavidin, while acceptor beads were conjugated with a monoclonal antibody recognising a mid-/C-terminal epitope of the peptide. Another monoclonal antibody, specific for the N-terminus, was biotinylated. The three reactants were combined with the analyte and formed a two-sited immuno-complex. Illumination of the complex released singlet oxygen atoms from the donor beads, which were channeled into the acceptor beads and triggered chemiluminescence which was measured in an Envision plate reader. The amount of light was proportional to the concentration of the compound.
Plasma concentration-time profiles were analyzed using Phoenix WinNonLin ver. 6.2, Pharsight Inc., Mountain View, Calif., USA), and the half-life (T1/2) calculated using individual plasma concentration-time profiles from each animal.
A short description of series [2]: Pharmacokinetic (PK) study in minipig. The settings on record: male, Göttingen, in vivo, iv.
In the next series the target is T1, human GLP-1 receptor (Homo sapiens, UniProt P43220).
T1 construct: expressed in transfected cells; host or cells: BHK cells, clone FCW467-12A/KZ10-1 (parent line BHKTS13), further transfected with CRE luciferase
T1 sequence (P43220 24-463): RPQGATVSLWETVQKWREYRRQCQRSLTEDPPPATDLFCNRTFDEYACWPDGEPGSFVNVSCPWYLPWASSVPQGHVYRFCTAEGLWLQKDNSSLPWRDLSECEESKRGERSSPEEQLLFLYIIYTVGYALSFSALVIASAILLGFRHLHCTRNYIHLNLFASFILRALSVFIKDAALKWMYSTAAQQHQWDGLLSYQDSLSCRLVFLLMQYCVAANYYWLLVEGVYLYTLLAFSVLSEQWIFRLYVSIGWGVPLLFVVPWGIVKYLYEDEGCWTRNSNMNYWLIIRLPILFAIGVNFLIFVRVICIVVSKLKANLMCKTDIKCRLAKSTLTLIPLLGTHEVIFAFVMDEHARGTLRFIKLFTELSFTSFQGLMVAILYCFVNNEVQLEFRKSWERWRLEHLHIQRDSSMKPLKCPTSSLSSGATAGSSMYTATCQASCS
Kind of series: In vitro potency (AlphaScreen cAMP, membranes). It counts as biochemical. The method, then:
The purpose of this example is to test the activity, or potency, of the GLP-1 derivatives in vitro.
Purified plasma membranes from a stable transfected cell line, BHK467-12A (tk-ts13), expressing the human GLP-1 receptor were stimulated with the GLP-1 analogue or derivative in question, and the potency of cAMP production was measured using the AlphaScreen™ cAMP Assay Kit from Perkin Elmer Life Sciences. The basic principle of the AlphaScreen Assay is a competition between endogenous cAMP and exogenously added biotin-cAMP. The capture of cAMP is achieved by using a specific antibody conjugated to acceptor beads.
A stable transfected cell line and a high expressing clone were selected for screening. The cells were grown at 5% CO2 in DMEM, 5% FCS, 1% Pen/Strep (Penicillin/Streptomycin) and 0.5 mg/ml of the selection marker G418.
Cells at approximately 80% confluence were washed 2× with PBS and harvested with Versene (aqueous solution of the tetrasodium salt of ethylenediaminetetraacetic acid), centrifuged 5 min at 1000 rpm and the supernatant removed. The additional steps were all performed on ice. The cell pellet was homogenised by the Ultrathurax for 20-30 s in 10 ml of Buffer 1 (20 mM Na-HEPES, 10 mM EDTA, pH=7.4), centrifuged 15 min at 20,000 rpm and the pellet resuspended in 10 ml of Buffer 2 (20 mM Na-HEPES, 0.1 mM EDTA, pH=7.4). The suspension was homogenised for 20-30 s and centrifuged 15 min at 20,000 rpm. Suspension in Buffer 2, homogenisation and centrifugation was repeated once and the membranes were resuspended in Buffer 2. The protein concentration was determined and the membranes stored at −80° C. until use.
The assay was performed in flat-bottom 96-well plates (Costar cat. no:3693). The final volume per well was 50 μl.
AlphaScreen cAMP Assay Kit from Perkin Elmer Life Sciences (cat. No: 6760625M); containing Anti-cAMP Acceptor beads (10 U/μl), Streptavidin Donor beads (10 U/μl) and Biotinylated-cAMP (133 U/μl).
AlphaScreen Buffer, pH=7.4: 50 mM TRIS-HCl (Sigma, cat.no: T3253); 5 mM HEPES (Sigma, cat.no: H3375); 10 mM MgCl2, 6H2O (Merck, cat.no: 5833); 150 mM NaCl (Sigma, cat.no: S9625); 0.01% Tween (Merck, cat.no: 822184). The following was added to the AlphaScreen Buffer prior to use (final concentrations indicated): BSA (Sigma, cat. no. A7906): 0.1%; IBMX (Sigma, cat. no. 15879): 0.5 mM; ATP (Sigma, cat. no. A7699): 1 mM; GTP (Sigma, cat. no. G8877): 1 uM.
cAMP standard (dilution factor in assay=5): cAMP Solution: 5 μL of a 5 mM cAMP-stock+495 μL AlphaScreen Buffer.
Membranes were prepared from hGLP-1/BHK 467-12A cells with a concentration of 6 μg/well corresponding to 0.6 mg/ml (the amount of membranes used pr. well may vary)
“No membranes”: Acceptor Beads (15 μg/ml final) in AlphaScreen buffer
“6 μg/well membranes”: membranes+Acceptor Beads (15 μg/ml final) in AlphaScreen buffer
An aliquot (10 μl) of “No membranes” was added to the cAMP standard (per well in duplicate wells) and the positive and negative controls
An aliquot (10 μl) of “6 μg/well membranes” was added to GLP-1 and analogues (per well in duplicate or triplicate wells)
Pos. Control: 10 μl “no membranes”+10 μl AlphaScreen Buffer
Neg. Control: 10 μl “no membranes”+10 μl cAMP Stock Solution (50 μM)
As the beads are sensitive to direct light, any handling was in the dark (as dark as possible), or in green light. All dilutions were made on ice.
1. Make the AlphaScreen Buffer.
2. Dissolve and dilute the GLP-1/Analogues/cAMP standard in AlphaScreen Buffer.
3. Make the Donor Beads Solution by mixing streptavidin donor beads (2 units/well) and biotinylated cAMP (1.2 units/well) and incubate 20-30 min in the dark at room temperature
4. Add the cAMP/GLP-1/Analogues to the plate: 10 μl per well.
5. Prepare membrane/Acceptor Beads solution and add this to the plates: 10 μl per well.
6. Add the Donor Beads: 30 μl per well.
7. Wrap the plate in aluminum foil and incubate on the shaker for 3 hours (very slowly) at RT.

For the molecule `CC[C@H](C)[C@H](NC(=O)[C@H](Cc1ccccc1)NC(=O)[C@H](CCC(=O)O)NC(=O)[C@H](CCCCNC(=O)[C@@H](N)CCCCNC(=O)COCCOCCNC(=O)COCCOCCNC(=O)CC[C@H](NC(=O)CCCCCCCCCCCOc1ccc(C(=O)O)cc1)C(=O)O)NC(=O)[C@H](C)NC(=O)[C@H](C)NC(=O)[C@H](CCC(N)=O)NC(=O)CNC(=O)[C@H](CCC(=O)O)NC(=O)[C@H](CC(C)C)NC(=O)[C@H](Cc1ccc(O)cc1)NC(=O)[C@H](CO)NC(=O)[C@H](CO)NC(=O)[C@@H](NC(=O)[C@H](CC(=O)O)NC(=O)[C@H](CO)NC(=O)[C@@H](NC(=O)[C@H](Cc1ccccc1)NC(=O)[C@@H](NC(=O)CNC(=O)[C@H](CCC(=O)O)NC(=O)C(C)(C)NC(=O)[C@@H](N)Cc1c[nH]cn1)[C@@H](C)O)[C@@H](C)O)C(C)C)C(=O)N[C@@H](C)C(=O)N[C@@H](Cc1c[nH]c2ccccc12)C(=O)N[C@@H](CC(C)C)C(=O)N[C@H](C(=O)N[C@@H](CCCNC(=N)N)C(=O)NCC(=O)N[C@@H](CCCNC(=N)N)C(=O)N[C@@H](CCCCNC(=O)[C@@H](N)CCCCNC(=O)COCCOCCNC(=O)COCCOCCNC(=O)CC[C@H](NC(=O)CCCCCCCCCCCOc1ccc(C(=O)O)cc1)C(=O)O)C(=O)O)C(C)C` [Example 14, N^ε26-[(2S)-2-amino-6-[[2-[2-[2-[[2-[2-[2-[[(4S)-4-carboxy-4-[12-(4-carboxyphenoxy)dodecanoylamino]butanoyl]amino]ethoxy]ethoxy]acetyl]amino]ethoxy]ethoxy]acetyl]amino]hexanoyl], N^ε37-[(2S)-2-amino-6-[[2-[2-[2-[[2-[2-[2-[[(4S)-4-carboxy-4-[12-(4-carboxyphenoxy)dodecanoylamino]butanoyl]amino]ethoxy]ethoxy]acetyl]amino]ethoxy]ethoxy]acetyl]amino]hexanoyl]-[Aib^8,Arg^34, Lys^37]-GLP-1-(7-37)-peptide], the half-life (as a rule, the time in which the quantity being followed falls by half) in series [1] was 19 h; in series [2] it was 88 h. On human GLP-1 receptor, the response was half-maximal at 0.28 nM (EC50).

For `CC[C@H](C)[C@H](NC(=O)[C@H](Cc1ccccc1)NC(=O)[C@H](CCC(=O)O)NC(=O)[C@H](CCCCNC(=O)[C@@H](N)CCCCNC(=O)COCCOCCNC(=O)CC[C@H](NC(=O)CC[C@H](NC(=O)CCCCCCCCCCCOc1ccc(C(=O)O)cc1)C(=O)O)C(=O)O)NC(=O)[C@H](C)NC(=O)[C@H](C)NC(=O)[C@H](CCC(N)=O)NC(=O)CNC(=O)[C@H](CCC(=O)O)NC(=O)[C@H](CC(C)C)NC(=O)[C@H](Cc1ccc(O)cc1)NC(=O)[C@H](CO)NC(=O)[C@H](CO)NC(=O)[C@@H](NC(=O)[C@H](CC(=O)O)NC(=O)[C@H](CO)NC(=O)[C@@H](NC(=O)[C@H](Cc1ccccc1)NC(=O)[C@@H](NC(=O)CNC(=O)[C@H](CCC(=O)O)NC(=O)C(C)(C)NC(=O)[C@@H](N)Cc1c[nH]cn1)[C@@H](C)O)[C@@H](C)O)C(C)C)C(=O)N[C@@H](C)C(=O)N[C@@H](Cc1c[nH]c2ccccc12)C(=O)N[C@@H](CC(C)C)C(=O)N[C@H](C(=O)N[C@@H](CCCNC(=N)N)C(=O)NCC(=O)N[C@@H](CCCNC(=N)N)C(=O)N[C@@H](CCCCNC(=O)[C@@H](N)CCCCNC(=O)COCCOCCNC(=O)CC[C@H](NC(=O)CC[C@H](NC(=O)CCCCCCCCCCCOc1ccc(C(=O)O)cc1)C(=O)O)C(=O)O)C(=O)O)C(C)C` [Example 15, N^ε26-[(2S)-2-amino-6-[[2-[2-[2-[[(4S)-4-carboxy-4-[[(4S)-4-carboxy-4-[12-(4-carboxyphenoxy)dodecanoylamino]butanoyl]amino]butanoyl]amino]ethoxy]ethoxy]acetyl]amino]hexanoyl], N^ε37-[(2S)-2-amino-6-[[2-[2-[2-[[(4S)-4-carboxy-4-[[(4S)-4-carboxy-4-[12-(4-carboxyphenoxy)dodecanoylamino]butanoyl]amino]butanoyl]amino]ethoxy]ethoxy]acetyl]amino]hexanoyl]-[Aib^8,Arg^34,Lys^37]-GLP-1-(7-37)-peptide], the half-life in series [1] was 20 h. Also, the EC50 (in general, the concentration needed to bring the measured effect to its halfway point) at human GLP-1 receptor amounted to 0.155 nM.

Consider `CC[C@H](C)[C@H](NC(=O)[C@H](Cc1ccccc1)NC(=O)[C@H](CCC(=O)O)NC(=O)[C@H](CCCCNC(=O)[C@@H](N)CCCCNC(=O)CC[C@H](NC(=O)CC[C@H](NC(=O)CC[C@H](NC(=O)CCCCCCCCCCCOc1ccc(C(=O)O)cc1)C(=O)O)C(=O)O)C(=O)O)NC(=O)[C@H](C)NC(=O)[C@H](C)NC(=O)[C@H](CCC(N)=O)NC(=O)CNC(=O)[C@H](CCC(=O)O)NC(=O)[C@H](CC(C)C)NC(=O)[C@H](Cc1ccc(O)cc1)NC(=O)[C@H](CO)NC(=O)[C@H](CO)NC(=O)[C@@H](NC(=O)[C@H](CC(=O)O)NC(=O)[C@H](CO)NC(=O)[C@@H](NC(=O)[C@H](Cc1ccccc1)NC(=O)[C@@H](NC(=O)CNC(=O)[C@H](CCC(=O)O)NC(=O)C(C)(C)NC(=O)[C@@H](N)Cc1c[nH]cn1)[C@@H](C)O)[C@@H](C)O)C(C)C)C(=O)N[C@@H](C)C(=O)N[C@@H](Cc1c[nH]c2ccccc12)C(=O)N[C@@H](CC(C)C)C(=O)N[C@H](C(=O)N[C@@H](CCCNC(=N)N)C(=O)NCC(=O)N[C@@H](CCCNC(=N)N)C(=O)N[C@@H](CCCCNC(=O)[C@@H](N)CCCCNC(=O)CC[C@H](NC(=O)CC[C@H](NC(=O)CC[C@H](NC(=O)CCCCCCCCCCCOc1ccc(C(=O)O)cc1)C(=O)O)C(=O)O)C(=O)O)C(=O)O)C(C)C` [Example 17, N^ε26-[(2S)-2-amino-6-[[(4S)-4-carboxy-4-[[(4S)-4-carboxy-4-[[(4S)-4-carboxy-4-[12-(4-carboxyphenoxy)dodecanoylamino]butanoyl]amino]butanoyl]amino]butanoyl]amino]hexanoyl], N^ε37-[(2S)-2-amino-6-[[(4S)-4-carboxy-4-[[(4S)-4-carboxy-4-[[(4S)-4-carboxy-4-[12-(4-carboxyphenoxy)dodecanoylamino]butanoyl]amino]butanoyl]amino]butanoyl]amino]hexanoyl]-[Aib^8,Arg^34,Lys^37]-GLP-1-(7-37)-peptide], for which the figures for the half-life in series [1] and in series [2] were 24 h and 71 h, respectively. This molecule showed an EC50 at human GLP-1 receptor of 0.286 nM.
